From PubChem BioAssay (NCI)
Values joined by “and” are separate entries in the source; they are usually repeats but may differ in a detail not shown here. Identical values can stand only once.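 All cell lines were grown in 96-well plates and treated with compound for 48 hours. Abbreviation: GI50, concentration required for 50% inhibition of growth. TGI: concentration producing complete growth inhibition.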

Assays:
Assay in all cases: NCI-60 cell line screen, 48 h
DLD-1 colon = system: DLD-1 colon
RXF-631 renal = system: RXF-631 renal
SNB-78 CNS = system: SNB-78 CNS
LXFL 529 NSCLC = system: LXFL 529 NSCLC
MDA-MB-231 breast = system: MDA-MB-231 breast
MDA-MB-435 = system: MDA-MB-435
MDA-N = system: MDA-N
NCI/ADR-RES ovarian = system: NCI/ADR-RES ovarian
PC-3 prostate = system: PC-3 prostate

C=CCC1[C@@H](C(C)(C)C(C(C)=O)C(=O)C(=O)OC)OC(C(C)(C)C)N1C(=O)OC (some centres undefined)
TGI (DLD-1 colon): > 100 µM
TGI (RXF-631 renal): > 100 µM
TGI (SNB-78 CNS): > 100 µM

CCOC(=O)c1ccc(N[C@@H]2c3cc4c(cc3C(C3=CC(=O)C(=O)C(OC)=C3)[C@H]3C(=O)OCC32)OCO4)cc1 (some centres undefined)
TGI (DLD-1 colon): > 39.8 µM
TGI (LXFL 529 NSCLC): 29.4 µM
TGI (RXF-631 renal): 10 µM
TGI (SNB-78 CNS): > 54.6 µM

Cl[Si]1(Cl)Oc2ccccc2O[Si](Cl)(Cl)Oc2ccccc2O1
TGI (DLD-1 colon): > 100 µM
TGI (RXF-631 renal): > 100 µM

CC1(C)CC[C@H](C2=CC(=O)c3c(O)ccc(O)c3C2=O)O1
TGI (MDA-MB-231 breast): 2.79 µM and 8.31 µM
GI50 (MDA-MB-435): 330 nM
TGI (MDA-MB-435): 0.837 µM
TGI (MDA-N): 1.6 µM and 3.78 µM
TGI (NCI/ADR-RES ovarian): 12 µM
TGI (PC-3 prostate): 7.34 µM and 4.16 µM
TGI (RXF-631 renal): 3.98 µM

COC(=O)/C(C#N)=C1\CCC(C(=O)OC)N1C (centres undefined)
TGI (DLD-1 colon): > 100 µM
TGI (RXF-631 renal): > 100 µM
TGI (SNB-78 CNS): > 100 µM

Cc1cc2c(Br)cc(Br)c(O)c2nc1C(=O)c1ccccc1
TGI (DLD-1 colon): > 100 µM
TGI (LXFL 529 NSCLC): 80.6 µM
TGI (MDA-MB-231 breast): 78.5 µM
TGI (MDA-MB-435): > 100 µM
TGI (MDA-N): 96.3 µM
TGI (NCI/ADR-RES ovarian): > 100 µM
TGI (PC-3 prostate): > 100 µM
TGI (SNB-78 CNS): > 100 µM

O=C/C(=C(/Cl)c1ccc(O)cc1)c1ccccc1
TGI (DLD-1 colon): > 60.1 µM
TGI (LXFL 529 NSCLC): 59.9 µM
TGI (RXF-631 renal): > 31.6 µM
TGI (SNB-78 CNS): > 82.9 µM

CCCCCCCCCCCCCC(=O)OCC1OC(=O)CC1O (centres undefined)
TGI (DLD-1 colon): > 100 µM
TGI (LXFL 529 NSCLC): > 100 µM
TGI (RXF-631 renal): > 100 µM
TGI (SNB-78 CNS): > 100 µM

CC(=O)[O-].CC(=O)[O-].CC(=O)[O-].CC(=O)[O-].[Mo+2].[Mo+2]
GI50 (DLD-1 colon): > 100 µM
TGI (DLD-1 colon): > 100 µM
GI50 (LXFL 529 NSCLC): > 100 µM
TGI (LXFL 529 NSCLC): > 100 µM
GI50 (SNB-78 CNS): > 100 µM
TGI (SNB-78 CNS): > 100 µM

COc1cc2cnc3c4ccccc4ccc3c2cc1OC
TGI (DLD-1 colon): > 100 µM
TGI (LXFL 529 NSCLC): > 100 µM
TGI (SNB-78 CNS): > 100 µM

CCOC(=O)C(=O)Nc1ccccc1C(F)(F)F
TGI (DLD-1 colon): > 100 µM
TGI (LXFL 529 NSCLC): > 100 µM
TGI (SNB-78 CNS): > 100 µM

CC(CC(=O)Nc1ccc(NC(=O)CC(C)N=NC(N)=S)cc1)N=NC(N)=S (centres undefined)
TGI (DLD-1 colon): > 100 µM
TGI (LXFL 529 NSCLC): > 100 µM
TGI (RXF-631 renal): > 100 µM
TGI (SNB-78 CNS): > 100 µM

COc1c(Br)cc(Br)c(OC)c1-c1[nH]c(Br)c(Br)c1Br
TGI (DLD-1 colon): 18.4 µM
TGI (RXF-631 renal): 21.9 µM
TGI (SNB-78 CNS): 28.8 µM

CCN(CC)CC(=O)N1CCc2c([nH]c3ccccc23)C1c1cccnc1 (centres undefined)
TGI (DLD-1 colon): > 100 µM
TGI (LXFL 529 NSCLC): > 100 µM
TGI (RXF-631 renal): > 100 µM
TGI (SNB-78 CNS): > 100 µM

CC1(c2ccccc2)CC(c2ccccc2)=NO1 (centres undefined)
TGI (DLD-1 colon): > 100 µM
TGI (LXFL 529 NSCLC): > 100 µM
TGI (SNB-78 CNS): > 100 µM

CC1=C(C(=O)Nc2ccccc2C)C(/C=C/c2ccccc2)C(C(=O)Nc2ccccc2C)=C(C)N1
TGI (DLD-1 colon): > 100 µM
TGI (LXFL 529 NSCLC): > 100 µM
TGI (RXF-631 renal): > 100 µM
TGI (SNB-78 CNS): > 100 µM

Cc1ccc(S(=O)(=O)N/N=C(\c2nc3ccc([N+](=O)[O-])cc3[nH]c2=O)C(O)c2ccccc2Cl)cc1 (centres undefined)
TGI (DLD-1 colon): > 100 µM
TGI (LXFL 529 NSCLC): > 100 µM
TGI (RXF-631 renal): > 100 µM
TGI (SNB-78 CNS): > 100 µM

C[n+]1c2ccccc2cc2c(CNC(CCCN=C(N)N)C(=O)O)cccc21 (centres undefined)
GI50 (DLD-1 colon): 0.481 µM
TGI (DLD-1 colon): 1.32 µM and 1.74 µM
GI50 (LXFL 529 NSCLC): 0.659 µM
TGI (LXFL 529 NSCLC): 2.12 µM and 2.14 µM
TGI (RXF-631 renal): 12.6 µM
GI50 (SNB-78 CNS): 5.8 µM
TGI (SNB-78 CNS): 7.93 µM and 35.5 µM

CC(=O)NNc1nc(C)c(C(=O)NNC(=O)C(=O)Nc2nc3ccc([N+](=O)[O-])cc3s2)s1
TGI (DLD-1 colon): > 100 µM
TGI (LXFL 529 NSCLC): > 100 µM
TGI (MDA-MB-231 breast): > 100 µM
TGI (MDA-MB-435): > 100 µM
TGI (MDA-N): > 100 µM
TGI (NCI/ADR-RES ovarian): > 100 µM
TGI (PC-3 prostate): > 100 µM
TGI (RXF-631 renal): > 100 µM
TGI (SNB-78 CNS): > 100 µM

COc1ccc(Nc2nc3ccccc3nc2-c2cccs2)cc1
TGI (DLD-1 colon): > 100 µM
TGI (LXFL 529 NSCLC): > 100 µM
TGI (SNB-78 CNS): > 100 µM

C#CCC(N)(CO)C(=O)O (centres undefined)
TGI (DLD-1 colon): > 100 µM
TGI (LXFL 529 NSCLC): > 100 µM
TGI (SNB-78 CNS): > 100 µM

CC/C(=N\NS(=O)(=O)c1ccccc1)c1ccccc1
TGI (DLD-1 colon): > 100 µM
TGI (LXFL 529 NSCLC): > 100 µM
TGI (RXF-631 renal): > 100 µM
TGI (SNB-78 CNS): > 100 µM

NC(=O)/C=C/C(=O)O
TGI (DLD-1 colon): > 5000 µM
TGI (LXFL 529 NSCLC): > 5000 µM
TGI (SNB-78 CNS): > 5000 µM

CC1(Cc2ccccc2)NC(=S)NC1=O (centres undefined)
TGI (DLD-1 colon): > 100 µM
TGI (LXFL 529 NSCLC): > 100 µM
TGI (RXF-631 renal): > 100 µM
TGI (SNB-78 CNS): > 100 µM

O=c1c(Cl)c(Cl)cnn1CCc1ccncc1
TGI (DLD-1 colon): 30.4 µM
TGI (LXFL 529 NSCLC): 29.8 µM
TGI (SNB-78 CNS): 49.8 µM

CSc1c(C)c(C)nn1-c1ccccc1
TGI (DLD-1 colon): > 100 µM
TGI (LXFL 529 NSCLC): > 100 µM
TGI (RXF-631 renal): > 100 µM
TGI (SNB-78 CNS): > 100 µM

Cc1ccc2nc3c(Cl)c(C)c(=O)cc-3sc2c1
GI50 (DLD-1 colon): 42.6 µM
TGI (DLD-1 colon): > 100 µM
GI50 (LXFL 529 NSCLC): 62.9 µM
TGI (LXFL 529 NSCLC): > 100 µM
GI50 (SNB-78 CNS): 54 µM
TGI (SNB-78 CNS): > 100 µM

Cc1ccccc1Nc1nc2c(s1)C(=O)c1ccccc1C2=O
TGI (DLD-1 colon): 13.6 µM
TGI (LXFL 529 NSCLC): 14.8 µM
TGI (MDA-MB-231 breast): 15 µM
TGI (MDA-N): 3.37 µM
TGI (PC-3 prostate): 7.95 µM
TGI (SNB-78 CNS): > 64.8 µM

CNC(SC)=C1C(=O)OC(C)(C)OC1=O
TGI (DLD-1 colon): 54.2 µM
TGI (LXFL 529 NSCLC): > 100 µM
TGI (SNB-78 CNS): > 100 µM
